Assays:
[1] = test system: U87 glioblastoma cells; experiment: Cell viability by MTT assay; format: cell-based; settings: 24 h; for IC50: read-out: IC50, growth inhibition of U87 glioblastoma cells
Experimental: U87 glioblastoma cells were obtained from American Type Culture Collection (ATCC, USA) and maintained in Dulbecco's Modified Eagle's Medium (DMEM) supplemented with 10% fatal bovine serum (FBS) in 5% CO2 at 37°C. Cells were treated with various concentrations of PLAB dissolved in DMSO with a final DMSO concentration of 1% or with DMSO alone for 24 h. DMSO-treated cells were used as control.
Cell viability was assessed by MTT assay and live/dead assay as described by us previously. Briefly U87 cells were treated with various concentrations of PLAB (1 to 100 μM) or Doxorubicin (0.25 to 20 μM) for 24 h. Following treatment, the MTT reagent was added (500 μg/mL) and cells were further incubated at 37°C for 4 h. Subsequently 150 μL DMSO was added to dissolve farmazan crystals and absorbance was measured at 570 nm in a microplate reader (Thermo Scientific). Results were expressed as the percentage of MTT reduction, assuming that the absorbance of control cells was 100%.

[2] = test system: U87 glioblastoma cells; experiment: Flow cytometry analysis of apoptosis (Annexin V/PI); format: cell-based; settings: 24 h, in % (unit assumed)
Experimental: U87 cells were treated with 5 and 10 μM PLAB in the presence or absence of z-VAD-fmk and PFTα for 24 h. After treatment, both adherent and floating cells were collected, washed with PBS, and resuspended in 200 μL of binding buffer containing 5 μL Annexin V and put in the dark for 10 min according to the kit instructions (Beyotime, Shanghai, China). After incubation, cells were labeled with 10 μL PI and samples were immediately analyzed by flow cytometry (Beckman Coulter, Epics XL).

[3] = test system: tumor in nude mice; settings: 15 mg/kg and 25 mg/kg; ref Wong et al. [14]; cited from earlier work
[4] = test system: polymeric tubulin, cyclin B1, CDK1/Cdc2 in U87 glioblastoma cells; experiment: Western blot of G2/M phase cell cycle regulators; format: cell-based; settings: 10 μM PLAB, 3 μM colchicine, 24 h
Experimental: (§1) After drug treatment, adherent and floating cells were collected and proteins were isolated as described previously. Nuclear and cytosolic proteins were extracted using cytosolic and nuclear extraction kit (Keygen, China) according to the manufacturer's instructions. 40 μg proteins were electrophoresed on 10% SDS-PAGE and transferred to PVDF membrane. After blocking with 5% (w/v) nonfat milk and washing with Tris-buffered saline-Tween solution (TBST), membranes were incubated overnight at 4°C with p53 (1 : 1000), BCL-2 (1 : 1000), Bax (1 : 300), Cytochrome c (1 : 200), Caspase-3 (1 : 500), Tubulin (1 : 500), Cyclin B1 (1 : 300), Cdc2 (1 : 300), β-actin (1 : 400), and AIF (1 : 1000) antibodies, respectively. After washing, the blots were incubated with horseradish peroxidase-conjugated goat anti-rabbit IgG or goat anti-mouse IgG or rabbit anti-goat IgG secondary antibodies (1 : 1000, Santa Cruz) for 1 h at room temperature. After washing with TBST, signals were detected using ECL plus chemiluminescence kit on X-ray film (Millipore Corporation, Billerica, USA).
Briefly the cell pellet was resuspended in 0.4 mL monomeric extraction buffer (20 mM Tris-HCl, pH 6.8, 0.14 M NaCl, 1 mM MgCl2, 1 mM EGTA, 0.5% Nonidet P-40 (NP-40), 0.5 mM PMSF, and 4 μg/mL paclitaxel), centrifuge at 12,000 ×g for 10 min and supernatant was removed. The pellets containing polymeric tubulin were resuspended in WIP cell lysis reagent (BIOSS, Beijing Biosynthesis Biotechnology Co., Ltd.) for 30 min and the supernatants (polymeric tubulins) were collected by centrifugation at 12,000 ×g for 10 min. The polymeric tubulins were subjected to Western blot analysis.

[5] = test system: p53, Bcl-2, Bax, Caspase-3, PARP, cytochrome c, AIF in U87 glioblastoma cells; experiment: Western blot of apoptosis regulators; format: cell-based; settings: 24 h
Experimental: as §1

[6] = test system: U87 glioblastoma cells; experiment: Flow cytometry analysis of cell cycle (PI); format: cell-based; settings: 24 h; for cells in G2/M phase: Mean ± SEM, n = 3, control 17.63 ± 2.06
Experimental: U87 cells were treated with 5 and 10 μM PLAB for 24 h. Following treatment, cells were harvested, washed with PBS, and fixed with 70% ethanol at 4°C for overnight. After washing twice with PBS, cells were stained with a solution containing 50 μg/mL PI and 100 μg/mL RNase A for 30 min in the dark, at room temperature. The DNA contents were analyzed by flow cytometry (Beckman Coulter, Epics XL).

[7] = test system: U87 glioblastoma cells; experiment: Live/dead assay, calcein AM and PI, flow cytometry; format: cell-based; settings: 24 h, read-out: viability of U87 glioblastoma cells (live/dead assay)
Experimental: Furthermore, live and dead cells were quantified using the fluorescent probes calcein AM and PI. Calcein AM is cell membrane permeable and stains only viable cells, whereas PI is cell membrane impermeable and stains only dead cells. After treatment, cells were collected, washed with phosphate buffered saline (PBS) and incubated with PBS solution containing 2 μM calcein AM and 4 μM PI in the dark for 20 min at room temperature. After washing, cells were resuspended in PBS and analyzed for the fluorescence of calcein and PI by flow cytometry (Beckman Coulter, Epics XL).

[8] = test system: U87 glioblastoma cells; experiment: Nuclear morphology / DNA fragmentation by Hoechst 33258 staining; format: cell-based; settings: 5 and 10 μM, 24 h, Hoechst 33258, dose-dependent
Experimental: After treatment with 5 and 10 μM PLAB for 24 h, U87 cells were collected by centrifugation at 1500 rpm for 5 min, washed twice with PBS and fixed with 4% paraformaldehyde at room temperature for 30 min. After centrifugation, cells were washed with PBS, stained with Hoechst 33258 (50 μg/mL) and incubated at 37°C for 30 min. At the end of incubation, cells were washed and resuspended in PBS for the observation of nuclear morphology under fluorescence microscope (Olympus 1 × 71). At the end, 100 nuclei from control and PLAB-treated groups were counted microscopically for the percentage of cleaved nuclei.

[9] = test system: Kunming mice; experiment: In vivo organ toxicity (liver, kidneys, body weight, serum biomarkers); set-up: species or system mouse; settings: 25 mg/kg intraperitoneally daily for 14 days
Experimental: In vivo studies were conducted on 12-14 week old Kunming mice weighing 43-45 g. The mice were maintained in a specific pathogen-free grade animal facility on a 12 h light/dark cycles at 25 ± 2°C. Mouse procedures were approved by the Experimental Animal Committee of Jilin University. Mice were divided into two groups. Group A (n = 5) administered with 50 μL DMSO intraperitoneally; Group B (n = 5) administered with PLAB (25 mg/kg body weight) in 50 μL DMSO intraperitoneally. The experiment was conducted over a period of two weeks. DMSO or drug was administered daily for 14 days, once a day. At the first and last day of the experiment, the body weight of each mouse was measured. At the end of experiment, mice were anesthetized using Pentobarbital sodium (50 mg/kg ip), blood was collected via cardiac puncture, allowed to clot for 10 min, centrifuge at 1000 ×g for 10 min at room temperature. Serum was separated and stored at -20°C until analysis. The liver and kidneys were excised and processed for hematoxylin and eosin staining followed standard procedures. The toxicological effect of PLAB on liver function was assessed by measuring the serum levels of AST, ALT and TBIL. Nephrotoxicity was determined by measuring the serum levels of BUN and Cr. These biochemical parameters were determined by an automated biochemical analyzer ([…] 7170, Japan).

COc1cccc2c1C(=O)c1c(O)c3c(c(O)c1C2=O)C[C@@](O)(C(=O)CO)C[C@@H]3O[C@H]1C[C@H](N)[C@H](O)[C@H](C)O1 [Doxorubicin, reference compound]
IC50 [1]: 1.8 µM

COC(=O)C1=CC[C@@]23CC[C@@H]([C@@](C)(/C=C/C=C(\C)C(=O)O)OC2=O)[C@@]3(OC(C)=O)CC1 [PLAB, Pseudolaric acid B]
apoptosis rate ([2]; 5 μM, Mean ± SEM, n = 3, control 2.52 ± 0.49): 24.43 ± 1.50
apoptosis rate ([2]; 10 μM PLAB with general caspase inhibitor z-VAD-fmk (20 μM)): 16.92 ± 1.30
apoptosis rate ([2]; 10 μM PLAB with p53 inhibitor PFTα (20 μM)): 33.42 ± 2.85
apoptosis rate ([2]; 10 μM, Mean ± SEM, n = 3, control 2.52 ± 0.49): 50.12 ± 3.42
growth of tumor in nude mice [3]: significantly inhibited the growth of tumor
toxicity / body weight loss in nude mice [3]: without any sign of toxicity or body weight loss
expression of Cdk1 (Cdc2) [4]: no change in the expression of Cdk1 (Cdc2)
expression of cyclin B1 [4]: increased the expression of cyclin B1
expression of polymeric tubulin (tubulin polymerization) [4]: downregulated polymeric tubulin
PARP cleavage [5]: cleavage of PARP into 85 kDa protein
caspase-3 cleavage [5]: cleaved the caspase-3 into 17 kDa and 12 kDa proteins
expression of Bax [5]: increased expression of Bax
expression of Bcl-2 [5]: remarkably decreased
expression of cytochrome c in cytosol ([5]; cytosolic proteins): increased the expression of cytochrome c in cytosol
expression of p53 ([5]; dose-dependent): markedly increased the expression of p53
AIF nuclear translocation ([5]; nuclear proteins): increased the expression of AIF in nucleus dose-dependently
cells in G2/M phase ([6]; 5 μM): 42.25 ± 2.95
cells in G2/M phase ([6]; 10 μM): 67.32 ± 1.83
effect of caspase inhibitor on PLAB-induced mitotic arrest ([6]; PLAB with z-VAD-fmk (20 μM)): did not prevent mitotic arrest
viability at 5 µM [7]: 74.7 ± 1.83%
viability at 10 µM [7]: 56.9 ± 3.47%
inhibition at 100 µM ([1]; 100 μM, read-out: inhibition rate): > 85%
IC50 [1]: ~10 µM
nuclear morphological changes [8]: induced obvious nuclear morphological changes including nuclear shrinkage and DNA fragmentation
histopathological changes in liver and kidneys ([9]; hematoxylin and eosin staining): No obvious morphological changes
TBIL, serum ([9]; n = 5, Mean ± SEM, control 1.0 ± 0.12, n.s.): 1.2 ± 0.26 n.s. μmol/L
BUN, serum ([9]; n = 5, Mean ± SEM, control 10.94 ± 3.01, n.s.): 9.45 ± 2.53 n.s. mmol/L
Cr, serum ([9]; n = 5, Mean ± SEM, control 27.4 ± 2.17, n.s.): 36.5 ± 1.99 n.s. μmol/L
ALT, serum ([9]; n = 5, Mean ± SEM, control 47.30 ± 3.70, n.s.): 55.45 ± 4.35 n.s. U/L
AST, serum ([9]; n = 5, Mean ± SEM, control 79 ± 5.50, n.s.): 87.66 ± 4.17 n.s. U/L
change in body weight of mice ([9]; versus control group): No obvious change in body weight
